Experimental data from US11628164B2, “Composition containing salsolinol for treating liver cancer” (SUNGSHIN WOMEN'S UNIVERSITY R&DB FOUNDATION, priority 2020, dated 2023).

Experiments:
[1] = test system: SK-Hep1; assay: Colony formation experiment; format: cell-based, human
Protocol: Among the human-derived liver cancer cell lines, the SK-Hep1, which is a liver cancer cell lines, is dispensed into 96-wells so as to have a concentration of 1×10^4 cells, and then, the SK-Hep1 is treated once every two or three days so that the salsolinol has a concentration of 25 μM or 50 μM. The salsolinol-treated the SK-Hep1 is further cultured for 3 days under the above-mentioned conditions. After that, the SK-Hep1 is fixed with 4% formaldehyde, stained with crystal violet for 2 hours, and after extraction with an acetic acid, the absorbance (570 nm) is measured. After culturing the SK-Hep1 cells at 1×10^4 cells/well for 24 hours, the SK-Hep1 is treated three times at 48 hour intervals with the salsolinol so as to have a concentration of 25 μM or 50 μM, and then the degree of colony formation is checked (refer to FIG. 2). The colony formation experiment for the SK-Hep11 is repeated a total of 4 times, the statistic process is performed, and comparison and analysis are performed. As a result of the experiment, in the case of being treated with the salsolinol having a concentration of 25 μM, it is confirmed that the colony formation ability of the SK-Hep1 is decreased to a level of 50% compared with the SK-Hep1 not treated with the salsolinol. […]

[2] = test system: normal hepatocytes (NCTC1469); conditions: NCTC1469, from KR10-2019-0129765; cited from earlier work
[3] = test system: Snai1, Vimentin genes in liver tissue; assay: Real-time quantitative PCR of liver tissue, DEN-induced liver cancer mouse model; format: in vivo, C57BL/6 mouse; conditions: DEN+SAL liver tissue, corrected with β-actin
Protocol: A normal mouse (M-Ctrl, n=5), a DEN-induced liver cancer mouse model (M-DEN, n=4), and a DEN-induced liver cancer mouse model treated with the salsolinol (M-DEN+SAL, n=5) are sacrificed, and liver tissues are obtained. And after that, trizol is added to lyse the liver tissues. 1 ml of a TRI reagent solution is added to the liver tissue, and after homogenization, centrifuge separation is performed at 4° C. and 12,000 rpm for 10 minutes. About 0.75 ml of the middle layer excluding the upper and lower debris is separated and put into a new tube. […]
After removing the supernatant, the RNA is washed with 75% ethanol, centrifuge separation is performed at 4° C. at 7,500 rpm for 5 minutes, and the remaining ethanol is evaporated at room temperature. The separated total RNA is quantified by using Nandrop 2000 (Thermo), and after that, cDNA is synthesized by using a reverse transcription reaction oligo dT primer and RT enzyme. By using the synthesized cDNA as a template, after addition of each primer and Bio-Rad SYBR mix (#1725270) and amplification by using a Bio-Rad Real-Time PCR instrument, analysis is performed by using quantitative software. The products amplified by real time PCR are quantified by using a comparative cycle threshold (Ct) method. […]

[4] = test system: SK-Hep1; conditions: cited from earlier work
[5] = test system: Ki-67, 8-OHdG in liver tissue; assay: Immunofluorescence staining of liver tissue (Ki-67, 8-OHdG); format: in vivo, C57BL/6 mouse
Protocol: The salsolinol (200 mg/kg) is administered for 6 months through intraperitoneal injection three times per week from the time when the DEN-induced liver cancer mouse model (male) became 7 weeks of age. After the mouse is sacrificed, the experiment is performed.
In the paraffin section slide requested to be manufactured by NORTHUS Co., Ltd., paraffin is removed by using xylene (Duksan, Gyeonggi, Korea). And, after a hydration process with low concentration ethanol (100, 90, 80, and 70% ethanol) at a high concentration, the slide is rinsed twice with running water. Since formaldehyde forms a cross-link between proteins to prevent a primary antibody from binding to the epitope of the antigen, the cross-link is removed by using an antigen retrieval reagent (sigma). After washing the slide thoroughly with running water, and dropping 2% triton for nuclear staining, the slide is left for 45 minutes. After washing the slide thoroughly with running water, blocking proceeds for 1 hour with a PBS solution containing 3% BSA to prevent non-specific binding. Then, after dropping a diluted PBS solution containing 3% BSA diluted with a primary antibody (8-OHdG, Ki-67) (1:500) on the slide, the slide is left at 4° C. for one day. After washing the slide with PBS and dropping a diluted secondary antibody (1:2000) on the slide, the slide is left at 4° C. for 1 hour. After washing the slide with PBS, staining with DAPI (1:200), and dropping 2-3 drops of mounting solution (sigma), the slide is covered with a slide cover. After about a day, the degree of fluorescence staining is checked by using a confocal microscope.
Tumor-related genes Ki-67 and 8-OHdG expressed in the liver tissue of the DEN-induced liver cancer mouse model (male, DEN), the DEN-induced liver cancer mouse model (male, DEN+SAL) administered with the salsolinol, and the normal mouse (male, SAL) administered with the salsolinol are analyzed by using an immunofluorescence measurement method (refer to FIGS. 10 and 11).

[6] = SK-Hep1, from KR10-2019-0129765
[7] = normal mouse administered with salsolinol (SAL)

Which “colony formation ability compared with untreated SK-Hep1” value ([1]; 25 μM salsolinol) does the source give for CC1NCCc2cc(O)c(O)cc21 (stereo not shown) [salsolinol, 6,7-dihydroxy-1-methyl-1,2,3,4-tetrahydroisoquinoline] here?
The value was 50%.

And the “colony formation ability compared with untreated SK-Hep1” value ([1]; 50 μM salsolinol)?
The value was 20%.

And the PARP-cleavage / apoptosis [2]?
The PARP-cleavage / apoptosis was “PARP-cleavage is induced to induce apoptosis”.

What about the “fibrosis-related genes and active oxygen species” value [2] of the same compound?
Its value is “increases fibrosis-related genes and active oxygen species”.

And the “Snai1 gene expression level” value [3]?
The value was “decreased to the expression level of expression in the normal mouse”.

What about the “Vimentin gene expression level” value [3] of the same compound?
The value was “decreased to the expression level of expression in the normal mouse”.

What about the STAT3 phosphorylation ([4]; SK-Hep1, from KR10-2019-0129765, 24 hours) of the same compound?
Its STAT3 phosphorylation is “increases signal transducer and transcription 3 (STAT3) phosphorylation”.

And the HO-1 expression [4, 6]?
Its HO-1 expression is “increased”.

What about the cytotoxicity [4, 6] of the same compound?
The cytotoxicity was “exhibits cytotoxicity”.

And the Ki-67 expression ([5]; DEN+SAL liver)?
Its Ki-67 expression is “not confirmed”.

What about the 8-OHdG expression ([5]; DEN+SAL liver tissue) of the same compound?
The 8-OHdG expression was “at a low level”.

What about the 8-OHdG expression [5, 7] of the same compound?
Its 8-OHdG expression is “at a low level”.

What about the Ki-67 expression [5, 7] of the same compound?
The Ki-67 expression was “not confirmed”.
